Laboratory results: patent US7842809B2, “Pyrazolopyridines and salts thereof, a pharmaceutical composition comprising said compounds, a method of preparing same and use of same” (Bayer Schering Pharma AG, priority 2005, dated 2010)
pIC50: −log10 of the molar value.

Columns and labels:
VEGFR-2 = molecular target: T1, VEGFR-2 (Homo sapiens, UniProt P35968); assay: VEGFR-2 kinase assay (Biological Experiment 5, HTRF); format: biochemical; conditions: mean IC50; recombinant VEGFR-2, 10 μM ATP; read-out: Inhibition of VEGFR-2 kinase
T1 construct: made in house; host or cells: E. coli
T1 sequence (P35968 20-1356): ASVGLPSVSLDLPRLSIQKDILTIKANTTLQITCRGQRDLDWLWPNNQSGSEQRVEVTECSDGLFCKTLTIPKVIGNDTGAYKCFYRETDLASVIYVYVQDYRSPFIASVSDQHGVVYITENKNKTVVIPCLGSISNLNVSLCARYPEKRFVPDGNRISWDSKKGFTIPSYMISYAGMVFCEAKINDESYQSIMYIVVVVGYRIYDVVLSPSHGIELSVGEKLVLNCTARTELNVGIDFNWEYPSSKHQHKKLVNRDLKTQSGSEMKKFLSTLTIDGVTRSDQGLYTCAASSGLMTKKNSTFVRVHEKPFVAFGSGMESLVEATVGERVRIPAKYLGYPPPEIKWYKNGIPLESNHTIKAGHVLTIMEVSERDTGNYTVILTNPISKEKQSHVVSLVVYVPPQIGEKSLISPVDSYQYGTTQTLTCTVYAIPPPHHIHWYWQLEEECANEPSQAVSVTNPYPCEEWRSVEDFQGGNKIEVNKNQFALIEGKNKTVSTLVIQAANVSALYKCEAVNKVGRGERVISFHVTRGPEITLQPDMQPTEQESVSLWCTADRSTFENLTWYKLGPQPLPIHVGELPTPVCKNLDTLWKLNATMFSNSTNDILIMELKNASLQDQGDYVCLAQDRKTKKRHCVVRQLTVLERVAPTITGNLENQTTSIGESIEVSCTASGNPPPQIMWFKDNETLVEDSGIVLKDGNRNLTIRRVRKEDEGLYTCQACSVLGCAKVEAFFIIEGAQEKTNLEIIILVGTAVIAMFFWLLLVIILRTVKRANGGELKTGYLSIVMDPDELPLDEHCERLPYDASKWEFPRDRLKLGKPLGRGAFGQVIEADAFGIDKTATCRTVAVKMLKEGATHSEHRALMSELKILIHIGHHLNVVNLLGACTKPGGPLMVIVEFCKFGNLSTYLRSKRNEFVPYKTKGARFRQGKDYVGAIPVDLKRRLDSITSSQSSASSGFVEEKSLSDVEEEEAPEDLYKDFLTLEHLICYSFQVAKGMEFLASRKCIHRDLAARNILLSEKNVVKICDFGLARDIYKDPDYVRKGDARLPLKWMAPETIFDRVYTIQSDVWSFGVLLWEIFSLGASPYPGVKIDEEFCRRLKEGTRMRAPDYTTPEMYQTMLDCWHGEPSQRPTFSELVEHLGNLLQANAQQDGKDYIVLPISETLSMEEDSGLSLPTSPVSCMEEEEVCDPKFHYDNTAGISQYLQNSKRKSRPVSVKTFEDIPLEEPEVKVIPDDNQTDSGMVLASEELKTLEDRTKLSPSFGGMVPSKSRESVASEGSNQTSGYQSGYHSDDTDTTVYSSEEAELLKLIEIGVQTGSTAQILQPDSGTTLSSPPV
Description: Biological Experiment 5: VEGFR-2 Kinase Assay
Recombinant VEGFR-2 protein was expressed in E. coli and purified. As kinase substrate, a biotinylated peptide with the amino acid sequence biotin-DFGLARDMYDKEYYSVG was used, which was obtained from Biosynthan.
VEGFR-2 [Test volume 5 μL] was incubated for 45 min at 22° C. in the presence of different concentrations of test substances (0 μM, including 10 datapoints within the range 0.001-20 μM in duplicate) in assay buffer [50 mM HEPES pH7.0, 25.0 mM MgCl2, 5.0 mM MnCl2, 0.1 mM Na ortho-Vanadate, 1.0 mM Dithiothreitol, 0.001% NP40, 10 μM ATP, 1.2 μM peptide substrate, 1.0% DMSO]. The reaction was stopped by addition of 5 μL of an EDTA/detection-solution [50 mM HEPES pH7.5, 125 mM EDTA, 0.2% BSA, 0.1 μM Streptavidin-XLent (obtained from CisBio), 1 nM PT66-Eu (obtained from PerkinElmer)]. The measurement of the fluorescence emission at 620 nm and 665 nm through excitation with light of wavelength 350 nm was accomplished in a Rubystar HTRF-measurement instrument obtained from BMG Labsystems.
The data (ratio of emission at 665 nm to emission at 620 nm multiplied by 10000) was normalised to 0% inhibition (enzyme reaction without inhibitor) and 100% inhibition (all assay components without enzyme). The determination of the IC50 values was accomplished with a 4-parameter fit using in-house software.

Tie2 [1] = molecular target: T2, Tie2 (Homo sapiens, UniProt Q02763); assay: Tie-2 ELISA: angiopoietin-2 stimulated Tie2 autophosphorylation in Tie2-transfected CHO cells (Biological Experiment 1); format: cell-based; design: expressed in transfected cells; host or cells: CHO (DHFR-deficient), stably transfected; conditions: mean IC50; CHO Tie2/DHFR cells stimulated with Ang2-Fc
Description: Biological Experiment 1: ELISA-Assay
Herein CHO cell-cultures, which are stably transfected by known techniques with Tie2 using DHFR deficiency as selection marker, are stimulated by angiopoietin-2. The specific autophosphorylation of Tie2 receptors is quantified with a sandwich-ELISA using anti-Tie2 antibodies for catch and anti-phosphotyrosine antibodies coupled to HRP as detection.
• 1 cap Vanadate (1 mL>40 mg/mL; working solution 2 mM) • ad 50 mL with Duschl buffer • pH 7.6 Anti-TIE-II antibody 1:425 in Coating Buffer pH 9.6 Stock solution: 1.275 mg/ml>working.: 3 μg/mL PBST: 2 bottles PBS(10×)+10 ml Tween, fill up with deionised water RotiBlock 1:10 in deionised water Anti-Phosphotyrosine HRP-Conjugated 1:10000 in 3% TopBlock • 3% TopBlock in PBST BM Chemiluminescence ELISA Substrate (POD) • solution B 1:100 solution A SF9 cell culture medium Ang2-Fc in SF9 cell culture medium Cell Experiment: Dispense 5×10^4 cells/well/98 μl in 96 well tissue culture plate Incubate at 37° C./5% CO2 After 24 h add compounds according to desired concentrations Add also to control and stimulated values without compounds 2 μl DMSO And mix for a few min at room temperature Add 100 μAng2-Fc to all wells except control, which receives insect medium Incubate 20 min at 37° C. Wash 3× with PBS++ Add 100 μl Lysis buffer/well and shake a couple of min at room temperature Store lysates at […] before utilizing for the ELISA Performance of Sandwich-ELISA Coat 96 well FluoroNunc Plate MaxiSorp Surface C with anti-Tie2 Mab 1:425 in Coating buffer pH 9.6; 100 μL/well overnight at 4° C. Wash 2× with PBST Block plates with 250 μL/well RotiBlock 1:10 in deionised water Incubate for 2 h at room temperature or overnight at 4° C. shaking Wash 2× in PBST Add thawed lysates to wells and incubate overnight shaking at 4° C. Wash 2× with PBST Add 100 μL/well anti-Phosphotyrosine HRP-Conjugated 1:10000 in 3% TopBlock (3% TopBlock in PBST) and incubate overnight under shaking Wash 6× with PBST Add 100 μL/well BM Chemiluminescence ELISA Substrate (POD solutions 1 and 2 (1:100) Determine luminescence with the LumiCount. Biological Experiment 2: Tie-2-Kinase HTRF-Assay
Target sequence in this assay (Q02763 23-1124): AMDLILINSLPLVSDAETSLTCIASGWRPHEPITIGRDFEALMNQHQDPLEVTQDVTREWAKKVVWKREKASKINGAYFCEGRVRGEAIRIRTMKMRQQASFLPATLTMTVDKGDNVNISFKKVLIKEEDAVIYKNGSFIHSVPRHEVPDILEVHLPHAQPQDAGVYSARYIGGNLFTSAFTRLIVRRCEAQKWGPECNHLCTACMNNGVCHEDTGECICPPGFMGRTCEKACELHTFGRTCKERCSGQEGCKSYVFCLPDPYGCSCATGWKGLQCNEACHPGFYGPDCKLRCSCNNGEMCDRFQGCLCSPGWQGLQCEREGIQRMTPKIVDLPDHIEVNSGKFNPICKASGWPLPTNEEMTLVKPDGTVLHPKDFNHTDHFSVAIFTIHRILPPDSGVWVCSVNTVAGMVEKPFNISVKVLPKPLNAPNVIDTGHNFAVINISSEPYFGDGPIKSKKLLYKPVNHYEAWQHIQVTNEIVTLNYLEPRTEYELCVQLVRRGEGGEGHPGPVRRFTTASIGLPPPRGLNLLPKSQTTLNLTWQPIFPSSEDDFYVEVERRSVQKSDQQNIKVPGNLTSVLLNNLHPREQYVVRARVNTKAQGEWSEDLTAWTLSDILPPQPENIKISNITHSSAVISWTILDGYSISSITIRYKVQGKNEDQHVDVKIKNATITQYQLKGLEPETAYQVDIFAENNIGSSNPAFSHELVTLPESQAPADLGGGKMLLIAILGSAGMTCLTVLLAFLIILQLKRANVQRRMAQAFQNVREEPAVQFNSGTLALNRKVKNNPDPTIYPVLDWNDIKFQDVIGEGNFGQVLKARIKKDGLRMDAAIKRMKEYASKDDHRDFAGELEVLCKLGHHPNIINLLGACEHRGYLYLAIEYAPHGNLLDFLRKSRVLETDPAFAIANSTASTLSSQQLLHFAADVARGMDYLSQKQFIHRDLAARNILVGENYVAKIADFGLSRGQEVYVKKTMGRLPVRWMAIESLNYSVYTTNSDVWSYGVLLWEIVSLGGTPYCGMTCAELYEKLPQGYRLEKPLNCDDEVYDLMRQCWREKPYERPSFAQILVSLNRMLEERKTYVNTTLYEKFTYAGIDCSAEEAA

Tie2 [2] = molecular target: T2, Tie2; assay: Tie-2 kinase assay without preactivation of kinase (Biological Experiment 3, HTRF); format: biochemical; design: fusion protein of GST and the intracellular domains of Tie-2; GST; made in house; host or cells: insect cells (Hi-5); conditions: mean IC50; GST-Tie-2 without preactivation, 10 μM ATP; read-out: Inhibition of Tie-2 kinase (Biological Experiment 3)
Excerpt: Biological Experiment 3: Tie-2 Kinase Assay without Preactivation of Kinase
A recombinant fusion protein of GST and the intracellular domains of Tie-2, expressed in insect cells (Hi-5) and purified by Glutathion-Sepharose affinity chromatography was used as kinase. Alternatively, commercially available GST-Tie2-fusion protein (Upstate Biotechnology, Dundee, Scotland) can be used. As substrate for the kinase reaction the biotinylated peptide biotin-Ahx-EPKDDAYPLYSDFG (C-terminus in amide form) was used which can be purchased e.g. from the company Biosynthan GmbH (Berlin-Buch, Germany). Tie-2 (3.5 ng/measurement point) was incubated for 60 min at 22° C. in the presence of 10 μM adenosine-tri-phosphate (ATP) and 1 μM substrate peptide (biotin-Ahx-EPKDDAYPLYSDFG-NH2) with different concentrations of test compounds (0 μM and concentrations in the range 0.001-20 μM) in 5 μl assay buffer [50 mM Hepes/NaOH pH 7, 10 mM MgCl2, 0.5 mM MnCl2, 1.0 mM dithiothreitol, 0.01% NP40, protease inhibitor mixture (“Complete w/o EDTA” from Roche, 1 tablet per 2.5 ml), 1% (v/v) dimethylsulfoxide]. To stabilize the enzyme, bovine serum albumin (0.1%, w/v) can be added. The reaction was stopped by the addition of 5 μl of an aqueous buffer (25 mM Hepes/NaOH pH 7.5, 0.28% (w/v) bovine serum albumin) containing EDTA (90 mM) and the HTRF (Homogeneous Time Resolved Fluorescence) detection reagents streptavidine-XLent (0.2 μM, from C is Biointernational, Marcoule, France) and PT66-Eu-Chelate (0.3 ng/μl; a europium-chelate labelled anti-phospho-tyrosine antibody from Perkin Elmer).
The resulting mixture was incubated 1 h at 22° C. to allow the binding of the biotinylated phosphorylated peptide to the streptavidine-XLent and the PT66-Eu-Chelate. Subsequently the amount of phosphorylated substrate peptide was evaluated by measurement of the resonance energy transfer from the PT66-Eu-Chelate to the streptavidine-XLent. Therefore, the fluorescence emissions at 620 nm and 665 nm after excitation at 350 nm was measured in a HTRF reader, e.g. a Rubystar (BMG Labtechnologies, Offenburg, Germany) or a Viewlux (Perkin-Elmer). The ratio of the emissions at 665 nm and at […] was taken as the measure for the amount of phosphorylated substrate peptide. The data were normalised (enzyme reaction without inhibitor=0% inhibition, all other assay components but no enzyme=100% inhibition) and IC50 values were calculated by a 4 parameter fit using an inhouse software.
Target sequence in this assay (Q02763 770-1124 limits assumed): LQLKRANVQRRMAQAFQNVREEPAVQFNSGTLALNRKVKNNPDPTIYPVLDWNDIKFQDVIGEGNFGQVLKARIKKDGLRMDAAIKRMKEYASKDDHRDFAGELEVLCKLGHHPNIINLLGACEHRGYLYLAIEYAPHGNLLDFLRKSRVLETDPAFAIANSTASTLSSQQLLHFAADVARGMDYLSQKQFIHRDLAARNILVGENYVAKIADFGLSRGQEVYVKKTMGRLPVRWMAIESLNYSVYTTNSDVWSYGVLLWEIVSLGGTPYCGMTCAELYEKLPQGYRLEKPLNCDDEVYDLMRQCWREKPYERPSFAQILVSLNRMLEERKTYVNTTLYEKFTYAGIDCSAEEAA

Row | SMILES | pIC50 (VEGFR-2) | pIC50 (Tie2 [1]) | pIC50 (Tie2 [2])
1 | CC(C)(C)c1cc(-c2ccc(NC(=O)Nc3ccccc3)cc2)c2c(N)n[nH]c2n1 [Example 1, 1-[4-(3-amino-6-tert-butyl-1H-pyrazolo[3,4-b]pyridin-4-yl)-phenyl]-3-phenyl-urea] | 5.70 to 6.30 | 5.70 to 6.30 | ≥ 6.30
2 | CC(C)(C)c1cc(-c2ccc(NC(=O)C3(c4ccccc4)CC3)cc2)c2c(N)n[nH]c2n1 [Example 49, 1-phenyl-cyclopropanecarboxylic acid [4-(3-amino-6-tert-butyl-1H-pyrazolo[3,4-b]pyridin-4-yl)-phenyl]-amide] |  | ≥ 6.30 | ≥ 6.30
3 | CC(C)(C)c1cc(-c2ccc(NC(=O)Nc3cccc(F)c3)cc2)c2c(N)n[nH]c2n1 [Example 3, 1-[4-(3-amino-6-tert-butyl-1H-pyrazolo[3,4-b]pyridin-4-yl)-phenyl]-3-(3-fluoro-phenyl)-urea] |  | ≥ 6.30 | 5.70 to 6.30
4 | CC(C)(C)c1cc(-c2ccc(NC(=O)Nc3ccc(F)cc3)cc2)c2c(N)n[nH]c2n1 [Example 12, 1-[4-(3-amino-6-tert-butyl-1H-pyrazolo[3,4-b]pyridin-4-yl)-phenyl]-3-(4-fluoro-phenyl)-urea] |  | ≥ 6.30 | 5.70 to 6.30
5 | Cc1ccc(F)c(NC(=O)Nc2ccc(-c3cc(C(C)(C)C)nc4[nH]nc(N)c34)cc2)c1 [Example 31, 1-[4-(3-amino-6-tert-butyl-1 H-pyrazolo[3,4-b]pyridin-4-yl)-phenyl]-3-(2-fluoro-5-methyl-phenyl)-urea] |  |  | ≥ 6.30
6 | CC(C)(C)c1cc(-c2ccc(NS(=O)(=O)c3ccccc3)cc2)c2c(N)n[nH]c2n1 [Example 2, N-[4-(3-amino-6-tert-butyl-1H-pyrazolo[3,4-b]pyridin-4-yl)-phenyl]-benzenesulfonamide] |  | 5.70 to 6.30 | 5.70 to 6.30
7 | CC(C)c1cc(-c2ccc(NC(=O)Nc3cccc(C(F)(F)F)c3)cc2)c2c(N)n[nH]c2n1 [Example 16, 1-[4-(3-amino-6-isopropyl-1H-pyrazolo[3,4-b]pyridin-4-yl)-phenyl]-3-(3-trifluoromethyl-phenyl)-urea] | ≥ 6.30 | ≥ 6.30 | ≥ 6.30
8 | Nc1n[nH]c2nc(C3CC3)cc(-c3ccc(NC(=O)Nc4ccccc4)cc3)c12 [Example 14, 1-[4-(3-amino-6-cyclopropyl-1H-pyrazolo[3,4-b]pyridin-4-yl)-phenyl]-3-phenyl-urea] | ≥ 6.30 | ≥ 6.30 | 5.70 to 6.30
9 | CC(C)(C)c1cc(-c2ccc(NC(=O)Cc3ccccc3)cc2)c2c(N)n[nH]c2n1 [Example 47, N-[4-(3-amino-6-tert-butyl-1H-pyrazolo[3,4-b]pyridin-4-yl)-phenyl]-2-phenyl-acetamide] |  | 5.70 to 6.30 | 5.70 to 6.30
10 | CC(C)(C)c1cc(-c2ccc(NC(=O)Nc3cccc(C(F)(F)F)c3)cc2)c2c(N)n[nH]c2n1 [Example 27, 1-[4-(3-amino-6-tert-butyl-1H-pyrazolo-[3,4-b]pyridin-4-yl)-phenyl]-3-(3-trifluoro-methyl-phenyl)-urea] | ≥ 6.30 | ≥ 6.30 | ≥ 6.30

The remaining lines, values ahead:

Row | pIC50 (VEGFR-2) | pIC50 (Tie2 [1]) | pIC50 (Tie2 [2]) | SMILES
11 | ≥ 6.30 | ≥ 6.30 | ≥ 6.30 | CC(C)(C)c1cc(-c2ccc(NC(=O)Nc3cc(C(F)(F)F)ccc3F)cc2)c2c(N)n[nH]c2n1 [Example 37, 1-[4-(3-amino-6-tert-butyl-1H-pyrazolo[3,4-b]pyridin-4-yl)-phenyl]-3-(2-fluoro-5-trifluoromethyl-phenyl)-urea]
12 | 5.70 to 6.30 | 5.70 to 6.30 | 5.70 to 6.30 | Cc1ccc(C(=O)Nc2ccc(-c3cc(C(C)(C)C)nc4[nH]nc(N)c34)cc2)cc1 [Example 17, N-[4-(3-amino-6-tert-butyl-1H-pyrazolo[3,4-b]pyridin-4-yl)-phenyl]-4-methyl-benzamide]
13 | 5.70 to 6.30 | ≥ 6.30 | ≥ 6.30 | Cc1cccc(NC(=O)Nc2ccc(-c3cc(C(C)(C)C)nc4[nH]nc(N)c34)cc2)c1 [Example 9, 1-[4-(3-amino-6-tert-butyl-1H-pyrazolo[3,4-b]pyridin-4-yl)-phenyl]-3-m-tolyl-urea]
14 |  | ≥ 6.30 | 5.70 to 6.30 | CC(C)(C)c1cc(-c2ccc(NC(=O)C(C)(C)c3ccccc3)cc2)c2c(N)n[nH]c2n1 [Example 51, N-[4-(3-amino-6-tert-butyl-1H-pyrazolo[3,4-b]pyridin-4-yl)-phenyl]-2-phenyl-isobutyramide]
15 | 5.70 to 6.30 | ≥ 6.30 | ≥ 6.30 | Nc1n[nH]c2nc(C3CC3)cc(-c3ccc(NC(=O)Nc4ccccc4F)cc3)c12 [Example 15, 1-[4-(3-amino-6-cyclopropyl-1H-pyrazolo[3,4-b]pyridin-4-yl)-phenyl]-3-(2-fluoro-phenyl)-urea]
